The values below come from patent publication US9193722B2, “Tri-cyclic pyrazolopyridine kinase inhibitors” (Vertex Pharmaceuticals Incorporated, priority 2008, dated 2015).

Assay type in all cases: biochemical
One assay deals with PKC delta kinase (Homo sapiens, UniProt Q05655). Put plainly: PKC delta kinase inhibition, coupled-enzyme (NADH absorbance) assay, Ki. To be noted: 150 μM ATP, 46 nM PKC delta kinase, 30° C.; read-out: Ki PKC delta. The method, then:
(§1) An assay buffer solution was prepared which consisted of 100 mM HEPES (pH 7.5), 10 mM MgCl2, 25 mM NaCl, 0.1 mM EDTA and 0.01% Brij. […] To 16 μL of this enzyme buffer, in a 384 well plate, was added 1 μL of VRT stock solution in DMSO. The mixture was allowed to equilibrate for 10 mins at 30° C. The enzyme reaction was initiated by the addition of 16 μL stock ATP solution prepared in assay buffer to a final assay concentration of 150 μM. Initial rate data was determined from the rate of change of absorbance at 340 nm (corresponding to stoichiometric consumption of NADH) using a Molecular Devices Spectramax plate reader (Sunnyvale, Calif.) over 15 mins at 30° C. […] Ki values were calculated from initial rate data by non-linear regression using the Prism software package (Prism 4.0a, Graphpad Software, San Diego, Calif.).

The next assay addresses PKC alpha kinase (Homo sapiens, UniProt P17252). Briefly: PKC alpha kinase inhibition, coupled-enzyme (NADH absorbance) assay, Ki. To be noted: 130 μM ATP, 4.5 nM PKC alpha kinase, 30° C. The method, then: as §1, with “EDTA, 100 μM CaCl2” for “EDTA”, “130” for “150”
A further assay has as its target PKC theta kinase (Homo sapiens, UniProt Q04759). Put plainly: PKC theta kinase inhibition, coupled-enzyme (NADH absorbance) assay, Ki. Particulars: 240 μM ATP, 18 nM PKC theta kinase, 30° C. The method, then: An assay buffer solution was prepared which consisted of 100 mM HEPES (pH 7.5), 10 mM MgCl2, 25 mM NaCl, 0.1 mM EDTA and 0.01% Brij. […] To 60 μL of this enzyme buffer, in a 384 well plate, was added 2 μL of VRT stock solution in DMSO. The mixture was allowed to equilibrate for 10 mins at 30° C. […] Ki values were calculated from initial rate data by non-linear regression using the Prism software package (Prism 4.0a, Graphpad Software, San Diego, Calif.).

A value given as a limit tells only on which side of the number the result lay.

Sequence of PKC theta kinase (Q04759 whole entry): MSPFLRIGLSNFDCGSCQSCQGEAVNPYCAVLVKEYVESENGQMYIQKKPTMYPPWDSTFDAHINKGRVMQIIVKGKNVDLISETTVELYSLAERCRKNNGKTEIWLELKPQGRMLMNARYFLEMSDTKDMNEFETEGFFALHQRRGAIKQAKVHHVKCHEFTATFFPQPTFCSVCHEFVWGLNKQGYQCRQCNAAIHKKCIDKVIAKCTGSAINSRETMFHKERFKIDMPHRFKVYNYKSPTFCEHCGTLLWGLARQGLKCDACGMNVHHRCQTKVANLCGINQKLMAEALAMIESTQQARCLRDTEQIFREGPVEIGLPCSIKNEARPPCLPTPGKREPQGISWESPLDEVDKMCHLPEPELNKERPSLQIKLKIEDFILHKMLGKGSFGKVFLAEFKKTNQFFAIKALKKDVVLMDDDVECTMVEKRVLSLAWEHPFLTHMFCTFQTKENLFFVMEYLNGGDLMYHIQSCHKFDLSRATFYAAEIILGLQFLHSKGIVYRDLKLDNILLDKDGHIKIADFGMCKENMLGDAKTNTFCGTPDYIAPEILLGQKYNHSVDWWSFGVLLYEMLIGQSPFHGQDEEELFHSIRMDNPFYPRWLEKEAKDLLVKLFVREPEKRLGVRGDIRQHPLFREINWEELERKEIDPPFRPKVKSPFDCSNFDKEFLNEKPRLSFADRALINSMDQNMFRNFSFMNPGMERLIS
Sequence of PKC delta kinase (Q05655 whole entry): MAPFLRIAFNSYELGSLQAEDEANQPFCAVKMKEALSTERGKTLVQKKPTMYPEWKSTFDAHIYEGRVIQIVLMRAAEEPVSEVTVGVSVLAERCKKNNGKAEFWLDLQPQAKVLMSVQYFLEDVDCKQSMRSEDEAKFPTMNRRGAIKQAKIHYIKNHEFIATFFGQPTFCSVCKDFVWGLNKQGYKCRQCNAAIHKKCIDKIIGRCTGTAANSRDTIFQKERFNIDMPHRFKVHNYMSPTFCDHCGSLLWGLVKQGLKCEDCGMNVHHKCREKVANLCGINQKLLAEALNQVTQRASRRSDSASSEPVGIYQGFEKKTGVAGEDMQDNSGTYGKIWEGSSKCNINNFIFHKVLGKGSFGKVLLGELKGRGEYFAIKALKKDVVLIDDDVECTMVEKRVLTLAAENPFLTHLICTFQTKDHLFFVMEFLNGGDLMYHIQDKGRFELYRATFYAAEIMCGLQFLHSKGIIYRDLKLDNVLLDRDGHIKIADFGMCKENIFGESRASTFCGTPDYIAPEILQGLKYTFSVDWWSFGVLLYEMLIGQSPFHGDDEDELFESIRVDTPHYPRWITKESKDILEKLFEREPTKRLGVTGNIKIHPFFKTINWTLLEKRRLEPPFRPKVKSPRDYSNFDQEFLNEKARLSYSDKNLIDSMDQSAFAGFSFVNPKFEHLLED

For `Cc1ccc(N2CCNCC2)nc1-c1n[nH]c2ncccc12` [Compound 3], the Ki is less than 2800 nM at PKC delta kinase, greater than 2800 nM on PKC alpha kinase and less than 500 nM at PKC theta kinase.

Turning to `CC(C)C[C@H]1CN(c2ccc(C(F)(F)F)c(-c3n[nH]c4ncccc34)n2)CCN1` [Compound 4, (S)-3-(6-(3-isobutylpiperazin-1-yl)-3-(trifluoromethyl)pyridin-2-yl)-1H-pyrazolo[3,4-b]pyridine], the Ki on PKC delta kinase is greater than 1250 nM; on PKC alpha kinase, greater than 1250 nM; on PKC theta kinase, less than 50 nM.

For `FC(F)(F)c1ccc(N2CCNC(c3ccccc3)C2)nc1-c1n[nH]c2ncccc12` (stereo not drawn) [Compound 5], the Ki is greater than 2000 nM on PKC delta kinase, greater than 1250 nM on PKC alpha kinase and less than 50 nM at PKC theta kinase.

For the compound `C=C(F)c1ccc(N2CCN[C@@H](CC(C)C)C2)nc1-c1n[nH]c2ncccc12` [Compound 6], the figures for the Ki at PKC delta kinase, at PKC alpha kinase and on PKC theta kinase were less than 500 nM, less than 500 nM and less than 50 nM, respectively.

Consider `FC(F)(F)c1ccc(N2CCNCC2)nc1-c1n[nH]c2ncccc12` [Compound 8], for which the Ki on PKC delta kinase is less than 2800 nM; on PKC alpha kinase it was greater than 1250 nM; at PKC theta kinase it was less than 500 nM.

Turning to `CC(C)C[C@H]1CN(c2cccc(-c3n[nH]c4ncccc34)n2)C[C@H](C)N1` [Compound 10], the Ki is greater than 2000 nM on PKC delta kinase, greater than 1250 nM at PKC alpha kinase and less than 2800 nM on PKC theta kinase.

In the case of `CC(C)C[C@H]1CN(c2cccc(-c3n[nH]c4ncccc34)n2)C[C@@H](C)N1` [Compound 11], the Ki is less than 50 nM on PKC delta kinase, less than 2800 nM at PKC alpha kinase and less than 50 nM on PKC theta kinase.

Regarding `CC[C@H]1CN(c2cccc(-c3n[nH]c4ncccc34)n2)C[C@H](CC(C)C)N1` [Compound 12], the Ki was greater than 2000 nM on PKC delta kinase, greater than 1250 nM on PKC alpha kinase and less than 500 nM at PKC theta kinase.

Consider `CC[C@@H]1CN(c2cccc(-c3n[nH]c4ncccc34)n2)C[C@H](CC(C)C)N1` [Compound 13], for which the Ki was less than 500 nM at PKC delta kinase, less than 2800 nM on PKC alpha kinase and less than 50 nM at PKC theta kinase.

On to `CCC[C@H]1CN(c2cccc(-c3n[nH]c4ncccc34)n2)C[C@H](CC(C)C)N1` [Compound 14], for which the Ki on PKC delta kinase was less than 2800 nM; on PKC alpha kinase, greater than 1250 nM; at PKC theta kinase it was less than 500 nM.

With `CCC[C@@H]1CN(c2cccc(-c3n[nH]c4ncccc34)n2)C[C@H](CC(C)C)N1` [Compound 15], the Ki at PKC delta kinase was less than 500 nM; on PKC alpha kinase, less than 2800 nM; at PKC theta kinase it was less than 50 nM.

For `Cc1cccc(C2CN(c3cccc(-c4n[nH]c5ncccc45)n3)CCN2)c1` (stereo not drawn) [Compound 16], the Ki is greater than 2000 nM at PKC delta kinase, less than 2800 nM on PKC alpha kinase and less than 500 nM at PKC theta kinase.

As for `Cc1ccc(C2CN(c3cccc(-c4n[nH]c5ncccc45)n3)CCN2)cc1` (stereo not drawn) [Compound 17], the values for the Ki on PKC delta kinase, on PKC alpha kinase and at PKC theta kinase were greater than 2000 nM, less than 2800 nM and less than 500 nM, respectively.

Turning to `Clc1cccc(C2CN(c3cccc(-c4n[nH]c5ncccc45)n3)CCN2)c1` (stereo not drawn) [Compound 18], the Ki is less than 2800 nM at PKC delta kinase, less than 2800 nM at PKC alpha kinase and less than 50 nM at PKC theta kinase.

As to `CC(=O)N1CCN(c2cccc(-c3n[nH]c4ncccc34)n2)CC1` [Compound 20], the Ki on PKC delta kinase was greater than 2000 nM; on PKC alpha kinase, greater than 1250 nM; at PKC theta kinase, greater than 700 nM.

`OC1CCN(c2cccc(-c3n[nH]c4ncccc34)n2)CC1` [Compound 22]: the Ki on PKC delta kinase is greater than 2000 nM; on PKC alpha kinase, greater than 1250 nM; at PKC theta kinase, greater than 700 nM.

Regarding `CC1CN(c2cccc(-c3n[nH]c4ncccc34)n2)C(C)CN1` (stereo not drawn) [Compound 23], the Ki on PKC delta kinase was greater than 2000 nM; on PKC alpha kinase, greater than 1250 nM; at PKC theta kinase it was greater than 700 nM.

On to `CNC1CCN(c2cccc(-c3n[nH]c4ncccc34)n2)C1` (stereo not drawn) [Compound 24], for which the Ki on PKC delta kinase was greater than 2000 nM; at PKC alpha kinase, greater than 1250 nM; at PKC theta kinase it was less than 2800 nM.

Take `FC(F)(F)C1CN(c2cccc(-c3n[nH]c4ncccc34)n2)CCN1` (stereo not drawn) [Compound 25]: the Ki at PKC delta kinase is less than 2800 nM; at PKC alpha kinase it was greater than 1250 nM; at PKC theta kinase, less than 500 nM.

In the case of `CN1CCN(c2cccc(-c3n[nH]c4ncccc34)n2)CC1` [Compound 26], the results for the Ki on PKC delta kinase, on PKC alpha kinase and on PKC theta kinase were greater than 2000 nM, greater than 1250 nM and less than 500 nM, respectively.

Turning to `c1cc(-c2n[nH]c3ncccc23)nc(N2CCOCC2)c1` [Compound 27], the Ki on PKC delta kinase was greater than 2000 nM; on PKC alpha kinase, less than 2800 nM; on PKC theta kinase, greater than 700 nM.

Regarding `FC(F)(F)CC1CN(c2cccc(-c3n[nH]c4ncccc34)n2)CCN1` (stereo not drawn) [Compound 28], the Ki on PKC delta kinase was less than 500 nM; on PKC alpha kinase, less than 2800 nM; at PKC theta kinase it was less than 50 nM.

Turning to `CC(C)C[C@H]1CN(c2ccc(C(F)(F)F)c(-c3n[nH]c4ncc(Br)cc34)n2)CCN1` [Compound 29], the Ki on PKC delta kinase is greater than 2000 nM; at PKC alpha kinase it was less than 2800 nM; at PKC theta kinase, less than 500 nM.

Regarding `C[C@H]1CNCCN1c1cccc(-c2n[nH]c3ncccc23)n1` [Compound 30], the Ki on PKC delta kinase is less than 500 nM; on PKC alpha kinase it was less than 500 nM; at PKC theta kinase, less than 50 nM.

Turning to `C[C@@H]1CNCCN1c1cccc(-c2n[nH]c3ncccc23)n1` [Compound 31], the Ki is less than 2800 nM on PKC delta kinase, greater than 1250 nM at PKC alpha kinase and less than 500 nM at PKC theta kinase.

Take `Cc1ccccc1C1CN(c2cccc(-c3n[nH]c4ncccc34)n2)CCN1` (stereo not drawn) [Compound 32]: the Ki was less than 500 nM on PKC delta kinase, less than 500 nM on PKC alpha kinase and less than 50 nM at PKC theta kinase.

In the case of `N[C@@H]1CCN(c2cccc(-c3n[nH]c4ncccc34)n2)C1` [Compound 33], the Ki at PKC delta kinase was less than 2800 nM; at PKC alpha kinase, greater than 1250 nM; at PKC theta kinase it was less than 500 nM.

Take `CN1CCCN(c2cccc(-c3n[nH]c4ncccc34)n2)CC1` [Compound 34]: the values for the Ki at PKC delta kinase, at PKC alpha kinase and on PKC theta kinase were greater than 2000 nM, less than 500 nM and less than 500 nM, respectively.

With `COc1cccc(C2CN(c3cccc(-c4n[nH]c5ncccc45)n3)CCN2)c1` (stereo not drawn) [Compound 35], the Ki was greater than 2000 nM at PKC delta kinase, less than 500 nM on PKC alpha kinase and less than 500 nM at PKC theta kinase.

For the compound `CC(C)(O)CC1CN(c2cccc(-c3n[nH]c4ncccc34)n2)CCN1` (stereo not drawn) [Compound 36], the Ki was less than 500 nM at PKC delta kinase, less than 2800 nM on PKC alpha kinase and less than 50 nM on PKC theta kinase.

As for `c1ccc(C[C@H]2CN(c3cccc(-c4n[nH]c5ncccc45)n3)CCN2)cc1` [Compound 37], the Ki on PKC delta kinase is less than 2800 nM; at PKC alpha kinase it was greater than 1250 nM; at PKC theta kinase, less than 50 nM.

In the case of `CC(C)C[C@H]1CN(c2cccc(-c3n[nH]c4ncc(Cl)cc34)n2)CCN1` [Compound 38], the Ki was less than 500 nM at PKC delta kinase, less than 500 nM on PKC alpha kinase and less than 50 nM at PKC theta kinase.

Consider `CC(C)C[C@H]1CN(c2cncc(-c3n[nH]c4ncccc34)n2)CCN1` [Compound 39, (S)-3-(6-(3-isobutylpiperazin-1-yl)pyrazin-2-yl)-1H-pyrazolo[3,4-b]pyridine], for which the Ki at PKC delta kinase was less than 500 nM; on PKC alpha kinase it was less than 2800 nM; at PKC theta kinase, less than 50 nM.

As for `Cc1ccc(-c2n[nH]c3ncccc23)nc1N1CCN[C@@H](CC(C)C)C1` [Compound 40], the Ki was less than 2800 nM at PKC delta kinase, greater than 1250 nM on PKC alpha kinase and less than 500 nM at PKC theta kinase.

Take `c1cc(-c2n[nH]c3ncccc23)nc(N2CCNC(C3CC3)C2)c1` (stereo not drawn) [Compound 41]: the Ki on PKC delta kinase was less than 500 nM; at PKC alpha kinase, greater than 1250 nM; at PKC theta kinase, less than 50 nM.

For the compound `Clc1cnc2[nH]nc(-c3cccc(N4CCNCC4)n3)c2c1` [Compound 42], the Ki on PKC delta kinase, on PKC alpha kinase and on PKC theta kinase was less than 500 nM each time.

In the case of `CC(C)CC1(C)CN(c2ccc(C(F)(F)F)c(-c3n[nH]c4ncccc34)n2)CCC1N` (stereo not drawn) [Compound 388], the Ki on PKC delta kinase is less than 500 nM; at PKC theta kinase, less than 50 nM.

On to `CNC(C1CCCN(c2ccc(F)c(-c3n[nH]c4ncccc34)n2)C1)C(C)(C)C` (stereo not drawn) [Compound 409], for which the Ki is less than 2800 nM at PKC delta kinase and less than 50 nM at PKC theta kinase.

As to `CCC(N)C1(C(F)(F)F)CCN(c2ccc(F)c(-c3n[nH]c4ncccc34)n2)C1` (stereo not drawn) [Compound 449], the figures for the Ki on PKC delta kinase and on PKC theta kinase were greater than 1250 nM and greater than 700 nM, respectively.
